In patent US6048875A, “Benzothiophene, benzofuran and indole compounds” (Adir et Compagnie, priority 1998, dated 2000):

Biological target: recombinant active human PAI-1 (Homo sapiens, UniProt P05121)
Experiment: Inhibition of the activity of PAI-1 (fibrin clot formation and breakdown monitored by turbidity in microplate wells; fibrinolytic activity)
Type: biochemical
Conditions: in vitro, pH 7.4 phosphate buffer, clot absorbance two hours after fibrin formation, 2 nM PAI-1 solution, tissue plasminogen activator, fibrinogen, human thrombin, read-out: fibrinolytic activity IC50 (concentration of product that inhibits PAI-1 activity by 50%)

Chain of recombinant active human PAI-1 (P05121 24-402): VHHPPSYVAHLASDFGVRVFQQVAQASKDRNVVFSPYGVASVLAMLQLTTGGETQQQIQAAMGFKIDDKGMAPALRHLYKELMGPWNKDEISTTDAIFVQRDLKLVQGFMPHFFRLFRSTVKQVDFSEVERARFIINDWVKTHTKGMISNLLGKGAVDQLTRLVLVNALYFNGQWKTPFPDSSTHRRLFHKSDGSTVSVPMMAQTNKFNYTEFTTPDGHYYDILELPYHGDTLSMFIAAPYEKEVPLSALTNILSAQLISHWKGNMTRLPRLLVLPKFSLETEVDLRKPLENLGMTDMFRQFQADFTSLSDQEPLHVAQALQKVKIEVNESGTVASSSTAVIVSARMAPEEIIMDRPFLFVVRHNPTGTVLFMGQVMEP

| Compound | IC50 |
| --- | --- |
| O=C(O)/C(=C/c1sc2cc(OCc3ccccc3)c(OCc3ccccc3)cc2c1Oc1ccc(-c2ccncc2)cc1)c1ccncc1 [Example 66] | 2.2 µM |
| COc1ccc(Oc2c(/C=C(/C(=O)O)c3ccncc3)sc3cc(OCc4ccccc4)c(OCc4ccccc4)cc23)cc1 | 13 µM |
| COc1cc2sc(/C=C(/C(=O)O)c3ccncc3)c(Oc3cccnc3)c2cc1OCc1ccccc1 [Example 67] | 5 µM |
| O=C(O)/C(=C/c1sc2cc(OCc3ccccc3)c(OCc3ccccc3)cc2c1Oc1ccc(OCc2ccccc2)cc1)c1ccncc1 | 7 µM |
